Experimental data published in ChEMBL document CHEMBL1201862, “PubChem BioAssay data set” (2004).
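Five compound concentrations were applied to cells in 96-well plates for 48 hours; endpoints were derived by simple linear interpolation of the resulting dose-response curve. GI50 marks 50% less growth.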 The source made the active and inactive calls. Rule as the data show it: active = GI50 up to about 1.1 µM and inactive = higher.

Legend:
Experiment in all cases: inhibition of tumour cell growth, NCI panel, 48 h
A498 = system: A498
ACHN = system: ACHN
CAKI-1 = system: CAKI-1
DMS-273 = system: DMS-273
HL-60 = system: HL-60
HT-29 = system: HT-29
MDA-MB-435 = system: MDA-MB-435
MOLT-4 = system: MOLT-4
NCI-H226 = system: NCI-H226
NCI-H460 = system: NCI-H460
NCI-H522 = system: NCI-H522
OVCAR-4 = system: OVCAR-4
SF-268 = system: SF-268
SF-295 = system: SF-295
SK-MEL-28 = system: SK-MEL-28
SK-MEL-2 = system: SK-MEL-2
SN12C = system: SN12C
SR = system: SR
TK-10 = system: TK-10
UACC-62 = system: UACC-62

Measured: GI50

O=c1n(CC2CO2)c(=O)n(CC2CO2)c(=O)n1CC1CO1 (stereo not given) [TEROXIRONE]
inactive: A498 30.3 µM | ACHN 1.36 µM | CAKI-1 8.04 µM | DMS-273 1.16 µM | HL-60 1.55 µM | HT-29 13.9 µM | MDA-MB-435 17.9 µM | MOLT-4 2.35 µM | NCI-H226 26.6 µM | NCI-H460 2.03 µM | NCI-H522 13.6 µM | OVCAR-4 45.2 µM | SF-268 14.3 µM | SF-295 10 µM | SK-MEL-28 54.5 µM | SK-MEL-2 90.2 µM | SN12C 7.83 µM | SR 1.25 µM | TK-10 36.6 µM | UACC-62 2.49 µM
